# Laboratory results as given in a melting point compilation (Tetko et al.).
row,Structure (SMILES),melting point
1,OCc1csc(-c2cccc(Cl)c2)n1,93 to 95 °C
2,COc1cc(C(=O)O)c(OC)c([N+](=O)[O-])c1,180 to 184 °C
3,Cc1ccc(N=C(Nc2ccc(C)cc2)c2cc(C(C)(C)C)c(O)c(C(C)(C)C)c2)cc1,207 °C
4,CCOc1ccc2c(C)cc(=O)oc2c1,115 °C
5,Oc1ccccc1Cc1ccccc1,52 °C
6,CC1CCC2C(C)C3C(CC4C5CC=C6CC(O)CCC6(C)C5CCC43C)N2C1 (stereo unspecified),218 °C
7,CC(C)C(C)CCC(C)C1CCC2C3CC=C4CC(O)CCC4(C)C3CCC12C (stereo unspecified),158 °C
8,O=C(Cc1ccccc1)c1ccc2c3c(ccc([N+](=O)[O-])c13)CC2,189 °C
9,Cn1cc(Br)c(C=O)n1,71 to 72 °C
10,CNC(=O)Oc1cc(C)cc(C(C)C)c1,87 °C
11,Oc1cc(Cl)c(Cl)c(Cl)c1,101 °C
12,O=C(O)c1c(F)cccc1I,121 to 126 °C
13,COc1cc(C=C(S)C(=O)O)ccc1O,161 °C
14,O=C(O)/C=C/c1c[nH]c2ccccc12,184 to 187 °C
15,CC1CCCCC1C (stereo unspecified),-49.9 °C
16,CSc1nsc(SC)c1C(=O)Nc1ccc(Cl)cc1,168 to 170 °C
17,CCOP(=S)(OCC)Oc1nc(Cl)n(C(C)C)n1,< 25 °C
18,Cc1ccc([N+](=O)[O-])c(N)n1,146 to 150 °C
19,Cc1ccc(F)c([N+](=O)[O-])c1,28 to 30 °C
20,Cc1cccc2ccccc12,34 °C
21,FC(F)=C(F)F,-142 °C

row,Structure (SMILES),melting point
1,CC(=O)OCC(COC(C)=O)OC(C)=O,78 °C
2,COc1cc(N)ccc1[N+](=O)[O-],127 °C
3,Fc1c(F)c(F)c(Br)c(Br)c1F,12 °C
4,O=C1C=C(NCc2cccnc2)C(=O)c2ccccc21,209 °C
5,CC(=O)Nc1ccc(CC(=O)O)cc1,173 °C
6,Cn1nc(C(F)(F)F)c(-c2ccccc2)c1N,85 to 89 °C
7,O=[N+]([O-])c1cccnc1Oc1ccc(F)cc1,98 to 99 °C
8,C=CCC1(CC=C)C(=O)NC(=O)NC1=O,172 to 173 °C
9,CCCCCCCCCCCCCCCCCC(=O)OCCCCC,30 °C
10,CCOC(=O)/C(=N\Nc1ccc(Cl)cc1)C(=O)C(F)(F)F,75 to 76 °C
11,CC(=O)c1ccc(O)c(C)c1O,154 °C
12,Cc1ccc(P(=S)(c2ccc(C)cc2)c2ccc(C)cc2)cc1,185 to 186 °C
13,Clc1noc2ccccc12,31 °C
14,c1ccc(Cc2nc3ccccc3nc2Cc2ccccc2)cc1,118 °C
15,O=C1c2ccccc2-c2ccc(Cl)cc21,126 °C
16,Cc1ncccn1,-4 °C
17,Clc1cc2c(cc1Cl)-c1cc(Cl)c(Cl)cc1-2,237 to 240 °C
18,c1ccc2c(c1)NC1(CCCCC1)O2,243 °C
19,O=S(=O)(Cl)c1ccc(Br)s1,41 °C
20,Cc1ccc2c(c1C)CCC1C2CCC2CCCCC21C (stereo unspecified),156 °C
21,Cc1cc(Br)c(N)c(C(=O)O)c1,204 °C

row,Structure (SMILES),melting point
1,O=C1OC(=O)c2cc(F)ccc21,75 to 78 °C
2,N#Cc1ccnc(I)c1,79 °C
3,NCCSS(=O)(=O)O,191 to 194 °C
4,FC(F)(F)c1ccc(-c2nc(CCl)no2)cc1,48 to 50 °C
5,CCCCCCCCCCCCC(C)C,-8 °C
6,OCc1cc(O)ccc1O,100 °C
7,ClCC1C(CCl)C2(Cl)C(Cl)=C(Cl)C1(Cl)C2(Cl)Cl (stereo unspecified),105 °C
8,CN1CCN(C)c2cc(C#N)ccc21,80 to 82 °C
9,Cc1c2ccccc2c(C)c2ccccc12,183 °C
10,CNC(=Nc1cc(C)ccn1)SC,78 to 81 °C
11,c1ccc(O[Si]23OCCN(CCO2)CCO3)cc1,218 °C
12,CCOC(=O)c1ccc(-n2c(C)ccc2C)cc1,88 to 90 °C
13,C[Si](C)(C)C#CC1(O)Cc2ccccc21 (stereo unspecified),47 °C
14,COc1ccc(NC(=S)c2cc(C(C)(C)C)c(O)c(C(C)(C)C)c2)cc1,128 to 129 °C
15,O=C(C=Cc1ccccc1)NCCO,101 °C
16,O=C(/C(=N\Nc1cccc(O)c1)S(=O)(=O)c1ccccc1)c1ccc(Cl)cc1,125 °C
17,COC(=O)c1ccc(C(C)=O)cc1,93 to 95 °C
18,CC(=O)OC1(C(C)=O)CCC2(C)C(CCC3C4CCC(O)C4(C)CCC32)C1 (stereo unspecified),193 °C
19,O=C(O)c1ccc2c(c1)CCCN2,168 to 170 °C
20,NC(CCC(=O)O)C(=O)O (stereo unspecified),205 °C
21,O=C1OC(=O)c2c(F)ccc(F)c21,217 to 221 °C

row,Structure (SMILES),melting point
1,Cc1ccc(C(=O)C2=NOC3C(=O)N(c4ccc(F)cc4)C(=O)C23)cc1 (stereo unspecified),173 °C
2,O=[N+]([O-])c1cc(Br)cnc1Cl,64 to 67 °C
3,Clc1cc(Cl)c2c(c1)oc1c(Cl)cc(Cl)cc12,177 °C
4,O=C(O)c1ccccc1SSc1ccccc1C(=O)O,288 °C
5,CCNCC(O)c1cccc(O)c1 (stereo unspecified),148 °C
6,NC(=S)Nc1ccc(F)cc1,162 to 167 °C
7,O=S(=O)(Cl)c1c(Cl)cc(C(F)(F)F)cc1Cl,48 °C
8,C=CCc1c(O)c(C(=O)c2ccccc2)cc(C(=O)c2ccccc2)c1O,161 °C
9,CCCCCSc1nnc[nH]1,47 to 48 °C
10,CCCCCCCCCCCCOC(=O)CCSCCC(=O)OCCCCCCCCCCCC,41 °C
11,O=C1/C(=C/c2ccccc2O)SC(=S)N1CN1CCCCC1,166 °C
12,Cc1ccc(P(c2ccccc2)c2ccccc2)cc1,66 to 68 °C
13,CCOC(=O)Cc1c(C(=O)OCC)[nH]c(C)c1C(=O)OCc1ccccc1,110 to 112 °C
14,O=C1CCCCCN1c1ccccc1,57 °C
15,COC(=O)c1ccc(OC)c(OC)c1Cl,46 to 48 °C
16,CCOP(=S)(NC(C)C)Oc1ccccc1C(=O)OC(C)C (stereo unspecified),-12 °C
17,CCCC(=O)Oc1c[nH]c2cc(Cl)c(Br)cc12,96 to 100 °C
18,c1ccc(C2Cc3ccccc3N2)cc1 (stereo unspecified),49 °C

# The remaining lines, values ahead:
row,melting point,Structure (SMILES)
1,204 to 208 °C,COc1ccccc1P(c1ccccc1OC)c1ccccc1OC
2,-73 °C,CCCC(=O)OC(=O)CCC
3,199 to 202 °C,NNC(=O)c1cncc(Br)c1
4,83 °C,CC(=O)O[C@]12CC[C@@H](C(C)(C)C)C[C@H]1O[C@@H]2c1c(F)c(F)c(F)c(F)c1F
5,238 °C,CCCCCCCCn1c(=O)c2cc3c(OC)c4cc5c(=O)n(CCCCCCCC)c(=O)c5cc4c(OC)c3cc2c1=O
6,204 to 207 °C,O=C(O)c1cc2cc(OC(F)(F)F)ccc2[nH]1
7,190 °C,N#Cc1c(-c2ccc(Br)cc2)cc2c(C#N)c(=N)n(C(=O)c3ccc(Cl)cc3)n2c1N
8,-135 °C,C=CC1CO1 (stereo unspecified)
9,58 to 59 °C,Brc1cccc2cccnc12
10,195 °C,CNC1=CC(=O)C2(C)CCC1C2(C)C (stereo unspecified)
11,139 to 141 °C,CCOC(=O)c1sc(SCc2ccccc2)c2c1CCCC2=O
12,185 °C,O=[N+]([O-])c1cc(C=NNc2ccccc2)ccc1C=NNc1ccccc1
13,88 to 89 °C,Nc1cccc(Cn2cncn2)c1
14,147 to 149 °C,O=C(O)CCn1ccnc1
15,107 to 108 °C,COC(=O)c1sc2ccccc2c1N
16,177 to 181 °C,CC(CN)C(=O)O (racemic)
17,91 to 93 °C,O=C(CBr)c1ccc2c(c1)OCO2
18,32 to 35 °C,CCOC(=O)c1ncoc1-c1ccccc1
19,36 °C,CCOc1ccc(C(=O)OC)cc1
20,105 to 108 °C,CSCCC(NS(=O)(=O)c1ccc(C)cc1)C(=O)O (racemic)
21,59 °C,Cc1cc(S(=O)(=O)Cl)ccc1Br
22,28 to 30 °C,O=Cc1ccc(F)c(Cl)c1
23,193 to 197 °C,CCCCCCCCCCCC(=O)OC1OC(CO)C(OC2OC(CO)C(O)C(O)C2O)C(O)C1O (stereo unspecified)
24,173 °C,COC(=O)C1=C(C)NC(C)=C(C(=O)OC)C1c1ccccc1[N+](=O)[O-]
25,141 °C,O=C(O)c1ccc(F)c(F)c1F

row,melting point,Structure (SMILES)
1,9.7 °C,CCCCCCCCCCOC(=O)CCCCCCCCC
2,134 °C,CCOC(=O)c1ccc(O)c(O)c1
3,154 to 155 °C,O=C(ON=C(c1cc2ccccc2o1)c1cc2ccccc2o1)c1ccccc1
4,80 to 84 °C,CO[C@@H](C)C(N)=O
5,210 °C,CC1=NN(c2ccccc2)C(=O)C1Cc1ccc(O)cc1 (stereo unspecified)
6,-55 °C,CCc1cccc(Cl)c1
7,266 °C,O=[N+]([O-])c1ccc2c(c1)=NC(c1cccc(C3N=c4cc([N+](=O)[O-])ccc4=C3O)c1)C=2O (stereo unspecified)
8,40 to 42 °C,N#Cc1ccc(OC(F)F)cc1
9,152 to 160 °C,CC(CCC(=O)O)C1CCC2C3C=CC4CCCCC4(C)C3CCC12C (stereo unspecified)
10,34 °C,c1ccc(Cc2cccnc2)cc1
11,189 °C,Cc1cc(C(F)(F)F)n2nc(N)c(/N=N/c3c(Cl)cc(Cl)cc3Cl)c2n1
12,-128 °C,FC(F)(F)C(F)(F)C(F)(F)C(F)(F)F
13,171 °C,C=CCC1=C(O)C2=CC=C3C(C)=C(C)C(=O)CC3(C)C2=C(O)C1=O (stereo unspecified)
14,61 °C,COC(=O)c1sccc1-n1cccc1
15,152 °C,COc1ccc(-c2nnc3n2NC(c2ccc(OC)cc2)S3)cc1 (stereo unspecified)
16,66 °C,Nc1ncccc1Br
17,51 °C,CC(C)(C)OC(=O)N1CC(=O)C1
18,100 to 102 °C,ON=Cc1ccc(Cl)cc1
19,18 °C,O=C1CCc2ccccc2C1
20,185 °C,CC(C=CC1=C(C)CCCC1(C)C)=CC=CC(C)=CC(=O)O
21,38 °C,CC(=O)Oc1cccc(I)c1
22,90 °C,CC(C(=O)O)N(C)C(=O)OC(C)(C)C (stereo unspecified)
23,83 °C,Cc1ccccc1C=Cc1ccccc1C
24,214 °C,NC(=O)N(CCO)N=Cc1ccc([N+](=O)[O-])o1
25,-11 °C,NCCOCCO
